Assay results from article PMC5671735, “The Effect of CM082, an Oral Tyrosine Kinase Inhibitor, on Experimental Choroidal Neovascularization in Rats” (Journal of Ophthalmology, 2017).
Values joined by “and” are separate entries in the source; they are usually repeats but may differ in a detail not shown here. Equal values may be shown once.

Legend:
[1] = type: in vivo; conditions: oral CM082 10 or 30 mg/kg/d
Text: […] BN rats were used in this study.

[2] = test system: laser-induced CNV rat model; assay: CNV histology (HE staining); type: in vivo, Brown Norway (BN) rats
Description: (§1) Laser photocoagulation-induced CNV was established as previously described. Preoperative preparation included general anesthesia, which was induced with an intraperitoneal injection of 1% pentobarbital sodium (40 mg/kg; Sigma-Aldrich, St. Louis, MO, USA). The rats' pupils were dilated using 0.5% tropicamide and 0.5% phenylephrine (Mydrin-P, Santen Pharmaceutical Co., Osaka, Japan). Surface anesthesia was induced with 0.5% Alcaine (Alcon (China) Ophthalmic Product Co., Beijing, China). Bruch's membrane of the right eye was injured using the following laser parameters: 532 nm wavelength, 360 mW intensity, 0.1 s duration, and 50 μm spot size. Eight to ten laser spots were applied to the major retinal vessels at approximately the same distance to the optic disc. A laser-induced cavitation bubble or slight hemorrhage indicated a rupture in Bruch's membrane. Fundus photography was taken immediately after laser photocoagulation to check for fundus hemorrhage.
The rats were euthanized after the FFA examination on day 14 or 21 after laser injury, and a histological examination was performed on 4 rats per group at each time point. The animals were enucleated, and the eyes were fixed in paraformaldehyde for 24 h (the eyelashes were also removed). After fixation, the eyes were embedded in paraffin and serially sectioned at 5 μm. […]

[3] = test system: laser-induced CNV rat model; assay: Fundus fluorescence angiography (FFA) of fluorescein leakage in laser-induced CNV; type: in vivo, Brown Norway (BN) rats
Description: as §1
(§2) To assess the CM082 distribution and the inhibitory effects of CM082 on CNV development, the 70 rats were randomly divided into 2 groups: 10 rats for evaluating the CNV rat model and to detect the distribution of CM082 and its metabolites and 60 rats for assessing the effects of CM082 on the experimental CNV. CM082 was administered orally at dose of 10 mg/kg/d or 30 mg/kg/d, while the vehicle ([…]) was used as a negative control.
The preoperative preparations were the same as those used to establish the CNV model. Approximately 0.2 ml of 10% sodium fluorescein (Alcon Japan, Tokyo, Japan) was injected intraperitoneally, and the leakage of fluorescein from the laser lesions was monitored dynamically for up to 15 min. The images were obtained using confocal scanning laser ophthalmoscopy (Spectralis, Heidelberg Engineering Inc., Heidelberg, Germany) and analyzed using ImageJ software (National Institutes of Health, Bethesda, MD, USA). The signal intensities (brightness of the CNV lesions) defined the degree of leakage. As a reference, the intensity of the capillaries in the normal regions was defined as 0, whereas the intensity at the major branch of the retinal vein was defined as 1.
To determine whether CM082 inhibited CNV progression, 60 BN rats were divided into 4 groups and randomized by weight, with 10 rats receiving CM082 at 10 mg/kg/d, 10 receiving CM082 at 30 mg/kg/d, 20 receiving vehicle treatment, and 20 undergoing the RPE-choroid-sclera preparation. […] The CNV analysis was performed on day 14 or 21 after laser photocoagulation using FFA, histological examinations, and immunohistochemistry.

[4] = test system: phosphorylated VEGFR-2 (p-VEGFR-2); assay: Immunohistochemistry of phosphorylated VEGFR-2 in CNV eyes; type: in vivo, Brown Norway (BN) rats; conditions: CM082 30 mg/kg oral, 14 and 21 days after laser injury, vs vehicle
Description: The rats were euthanized after the FFA examination on day 14 or 21 after laser injury, and a histological examination was performed on 4 rats per group at each time point. The animals were enucleated, and the eyes were fixed in paraformaldehyde for 24 h (the eyelashes were also removed). After fixation, the eyes were embedded in paraffin and serially sectioned at 5 μm. Routine hematoxylin-eosin (HE) staining was performed on selected slides, and the serial sections were examined using a light microscope. Immunohistochemical staining was performed on the histological sections from the CM082-treated and vehicle-treated groups 14 and 21 days after laser administration. Routine immunolocalization procedures were used to dewax and rehydrate the slides. The slides were incubated with 3% hydrogen peroxidase for 25 min and washed in phosphate-buffered saline (PBS) for 5 min. The slides were then blocked in goat serum for 15 min. Next, the sections were incubated with a phosphorylated anti-VEGFR-2 antibody (Nanjing Bioworld Biotech Co., Jiangsu, China) overnight at 4°C, followed by incubation with Goat Anti-Rabbit/Rat IgG antibody (Dako Denmark A/S, Denmark) for 30 min. The sections were subsequently incubated with horseradish peroxidase-conjugated streptavidin (Thermo Fisher Scientific China, Shanghai, China) for 30 min and then counterstained with hematoxylin for 2 min. […]

[5] = test system: oxidative-induced retinopathy; conditions: CM082-treated group compared to control group; no reference given; cited from earlier work
[6] = test system: laser-induced CNV rat model; assay: CNV area in RPE-choroid-sclera flat mounts after FITC-dextran perfusion; type: in vivo, Brown Norway (BN) rats
Description: as §1
To assess the inhibitory effects of CM082 on CNV development, the photocoagulated rats were randomly divided into 2 groups: (1) a CM082-treated group (n = 9) and (2) a vehicle-treated group (n = 9). CM082 (30 mg/kg/d or 5 ml/kg/d) or vehicle (5 ml/kg/d) was administered beginning on the 7th day after laser injury. On the 7th, 14th, or 21st day, 3 rats from each group were anesthetized, and the left ventricle of the heart was perfused with 2 ml of PBS containing 50 mg of fluorescein isothiocyanate- (FITC-) dextran (2 × 10^6 average molecular weight; Sigma-Aldrich). The enucleated eyes were fixed in 4% paraformaldehyde for 1 h. […] The CNV area was measured by ImageJ software (National Institutes of Health, Bethesda, MD, USA).
To further confirm the reverse effect of CM082 at a dose of 30 mg/kg/d on the CNV area, we prepared RPE-choroid-sclera by perfusion with FITC-dextran. […] In addition to comparing the CM082-treated group to the vehicle-treated group, we analyzed the CNV area in the CM082-treated group at different time points.

[7] = LC-MS/MS concentrations of CM082 and its metabolites in plasma and ocular tissues after oral CM082; type: in vivo, Brown Norway (BN) rats
Description: as §2
Liquid chromatography-tandem mass spectrometry (LC-MS/MS) was employed to detect the concentrations of CM082 and its metabolites (X-297 (C22H24FN5O3) and X-471 (C23H28FN5O4)) in the plasma and ocular tissues. An API-4000 triple-quadrupole mass spectrometer (AB Sciex, Framingham, MA, USA) coupled with a Shimadzu liquid chromatography system (Shimadzu Cooperation, Kyoto, Japan) was used for the analysis. CM082, its metabolites, and tolbutamide were dissolved in DMSO to generate 1.0 mg/ml stock solutions stored at 4°C. A total of 200 μl of the tolbutamide stock solution was dissolved in acetonitrile to produce internal-standard working solutions. The plasma and ocular tissue samples were analyzed along with the standard and quality-control samples. The data were analyzed with Analyst 1.6.1 (AB Sciex, Framingham, MA, USA).
Ten BN rats were photocoagulated in the oculus dexter (OD) to build the CNV rat model. Histological examination was performed at day 21, while FFA was conducted at days 14 and 21 to ensure that the CNV model was established successfully and to provide evidence that neovascularization was induced (Figures 1(a), 1(b), and 1(c)). After modeling CNV successfully, to investigate whether CM082 and its metabolites (X-297 and X-471) can reach the retina effectively, the rest of the nine rats were orally treated with CM082 at 10 mg/kg/d for 9 days, starting from day 22. […] Two days after FFA, the rats were sacrificed, and we determined the concentrations of CM082 in the plasma (ng/ml) and the ocular tissues (ng/g) 2 h after CM082 treatment. The concentrations of CM082 in the plasma, the oculus sinister (OS), and the OD were 196.87 ± 24.38 ng/ml, 172.74 ± 20.83 ng/g, and 172.97 ± 18.33 ng/g, respectively. The corresponding concentrations of X-297 were 34.42 ± 3.86 ng/ml, 31.28 ± 4.00 ng/g, and 31.11 ± 3.56 ng/g, while those of X-471 were 32.04 ± 4.57 ng/ml, 16.68 ± 2.18 ng/g, and 15.82 ± 1.85 ng/g.

[8] = test system: CNV model produced by subretinal injection of Matrigel; conditions: no reference given; cited from earlier work

Cc1[nH]c(/C=C2\C(=O)Nc3ccc(F)cc32)c(C)c1C(=O)N[C@H]1CCN(C(=O)N(C)C)C1 [CM082]
tolerability during treatment [1]: no behavioral change, death, or body weight loss
CNV lesion size by histology (HE) ([2]; CM082 10 mg/kg/d oral, day 21, vs vehicle): smaller
edema, depigmentation, and CNV areas by histology (HE) ([2]; CM082 30 mg/kg/d oral, 14 and 21 days after laser photocoagulation, vs vehicle): significantly decreased
FFA leakage signal intensity ([3]; 10 mg/kg/d group, day 7 after laser injury, before CM082 administration (baseline), scale 0 = capillaries, 1 = retinal vein, vehicle 0.81 ± 0.03): 0.78 ± 0.04
FFA leakage signal intensity ([3]; 30 mg/kg/d group, day 7 after photocoagulation, before dosing (baseline), vehicle 0.81 ± 0.02, p > 0.05): 0.77 ± 0.04
FFA leakage signal intensity ([3]; CM082 10 mg/kg/d oral from day 7, day 21 after laser injury (14 days after dosing), vehicle 0.82 ± 0.03, p < 0.01): 0.66 ± 0.05
FFA fluorescein leakage vs days 14 and 21 ([3]; CM082 10 mg/kg/d oral started day 22 after laser, FFA after 7 days of administration (day 28), p > 0.05): no significant reduction in fluorescein leakage
FFA leakage signal intensity ([3]; CM082 30 mg/kg/d oral from day 7, day 14, vehicle 0.83 ± 0.03, p < 0.001): 0.42 ± 0.03
FFA leakage signal intensity ([3]; CM082 30 mg/kg/d oral from day 7, day 21, vehicle 0.86 ± 0.02, p < 0.001): 0.35 ± 0.05
p-VEGFR-2 immunostaining [4]: reduced the aggregation of p-VEGFR-2 in the RPE and OPL
inhibition rate [5]: 71.1%
area of the CNV lesions ([6]; 30 mg/kg/d group, 7 days after laser photocoagulation, before dosing (baseline), vehicle 4.84 ± 0.72): 4.45 ± 0.90 μm^2 × 10^4
area of the CNV lesions ([6]; CM082 30 mg/kg/d oral from day 7, 14 days after laser injury, vehicle 9.60 ± 1.68): 1.48 ± 0.24 μm^2 × 10^4
area of the CNV lesions ([6]; CM082 30 mg/kg/d oral from day 7, 21 days after laser injury, vehicle 19.61): 1.03 ± 0.27 μm^2 × 10^4
distribution within the ocular tissues ([7]; 2 h after CM082 administration, oral 10 mg/kg/d): highest in the retina-sclera
concentration in the oculus sinister (OS) ([7]; CM082 oral 10 mg/kg/d for 9 days, 2 h after CM082 treatment, n = 9, eye without laser injury): 172.74 ± 20.83 ng/g
concentration in the oculus dexter (OD) ([7]; CM082 oral 10 mg/kg/d for 9 days, 2 h after CM082 treatment, n = 9, photocoagulated eye): 172.97 ± 18.33 ng/g
concentration in the plasma ([7]; CM082 oral 10 mg/kg/d for 9 days, 2 h after CM082 treatment, n = 9, 10 mg/kg/day): 196.87 ± 73.13 ng/mL and 196.87 ± 24.38 ng/mL
total concentration in the eyes ([7]; oral CM082, abstract value): 172.86 ± 57.11 ng/g
areas of CNV lesions [8]: reduced the areas of CNV lesions
